Test results from US9862686B2, “N1-sulfonyl-5-fluoropyrimidinone derivatives” (Adama Makhteshim Ltd., priority 2009, dated 2018).
Where two headings read alike, the source gives them in different places.

How the values were obtained:
[1] = tested on: Mycosphaerella graminicola; Anamorph: Septoria tritici; Bayer Code SEPTTR; test: Fungicidal activity: leaf blotch of wheat, protectant and curative treatment of inoculated wheat plants; assay type: in vivo; settings: Zymoseptoria tritici
Protocol: Evaluation of Fungicidal Activity: Leaf Blotch of Wheat (Mycosphaerella graminicola; Anamorph: Septoria tritici; Bayer Code SEPTTR)
Wheat plants (variety Yuma) were grown from seed in a greenhouse in 50% mineral soil/50% soil-less Metro mix until the first leaf was fully emerged, with 7-10 seedlings per pot. These plants were inoculated with an aqueous spore suspension of Septoria tritici either prior to or after fungicide treatments. After inoculation the plants were kept in 100% relative humidity (one day in a dark dew chamber followed by two to three days in a lighted dew chamber) to permit spores to germinate and infect the leaf. The plants were then transferred to a greenhouse for disease to develop.
The following table presents the activity of typical compounds of the present disclosure when evaluated in these experiments. The effectiveness of the test compounds in controlling disease was determined by assessing the severity of disease on treated plants, then converting the severity to percent control based on the level of disease on untreated, inoculated plants.
In each case of Table II the rating scale is as follows: […]

[2] = 24 h, One-Day Protectant (1DP), 100 ppm, wheat plants (variety Yuma), percent control vs untreated inoculated plants, read-out: SEPTTR 100 PPM 1DP (% Disease Control rating)
[3] = 72 h, Three-Day Curative (3DC), 100 ppm, wheat plants (variety Yuma), percent control vs untreated inoculated plants, read-out: SEPTTR 100 PPM 3DC (% Disease Control rating)
[4] = 24 h, read-out: SEPTTR 100 PPM 1DP (% Disease Control rating)
[5] = 72 h, read-out: SEPTTR 100 PPM 3DC (% Disease Control rating)

Compound	melting point	pest or weed control at 100 ppm [1, 2] [%]	pest or weed control at 100 ppm [1, 3] [%]	pest or weed control at 100 ppm [1, 4] [%]	pest or weed control at 100 ppm [1, 5] [%]
O=C(Nc1nc(=O)n(S(=O)(=O)c2ccc(Cl)cc2)cc1F)Oc1ccccc1	192 to 195 °C				
CN(C)/C=N/c1nc(=O)n(S(=O)(=O)c2ccccc2)cc1F [Cmpd 1, N′-(1-benzenesulfonyl-5-fluoro-2-oxo-1,2-dihydro-pyrimidin-4-yl)-N,N-dimethylformamidine]	203 to 204 °C	76 to 100	76 to 100		
CN(C)/C=N/c1nc(=O)n(S(=O)(=O)c2ccc(Cl)cc2)cc1F [Cmpd 2, N′-[1-(4-chloro-benzenesulfonyl)-5-fluoro-2-oxo-1,2-dihydro-pyrimidin-4-yl]-N,N-dimethylformamidine]	207 to 210 °C	76 to 100	76 to 100		
CN(C)/C=N/c1nc(=O)n(S(C)(=O)=O)cc1F [Cmpd 3]	133 to 134 °C	76 to 100	76 to 100		
Cc1ccc(S(=O)(=O)n2cc(F)c(/N=C/N(C)C)nc2=O)cc1 [Cmpd 4]	199 to 203 °C	76 to 100	76 to 100		
COc1ccc(S(=O)(=O)n2cc(F)c(/N=C/N(C)C)nc2=O)cc1 [Cmpd 5]	188 to 190 °C	76 to 100	76 to 100		
CCCS(=O)(=O)n1cc(F)c(/N=C/N(C)C)nc1=O [Cmpd 6]	144 to 145 °C	76 to 100	76 to 100		
CN(C)/C=N/c1nc(=O)n(S(=O)(=O)c2cccs2)cc1F [Cmpd 7]	205 to 207 °C	76 to 100	76 to 100		
Nc1nc(=O)n(S(=O)(=O)c2ccc(Cl)cc2)cc1F [Cmpd 8, 4-amino-1-(4-chloro-benzenesulfonyl)-5-fluoro-1H-pyrimidin-2-one]		76 to 100	76 to 100		
Nc1nc(=O)n(S(=O)(=O)c2cccs2)cc1F [Cmpd 9]	187 to 189 °C	76 to 100	76 to 100		
CCCS(=O)(=O)n1cc(F)c(N)nc1=O [Cmpd 10]	144 to 146 °C	76 to 100	76 to 100		
Cn1cnc(S(=O)(=O)n2cc(F)c(N)nc2=O)c1 [Cmpd 11]	235 to 237 °C	26 to 50	26 to 50		
Nc1nc(=O)n(S(=O)(=O)Cc2ccccc2)cc1F [Cmpd 12]	172 to 174 °C	76 to 100	76 to 100		
Nc1nc(=O)n(S(=O)(=O)c2ccc(Cl)cc2Cl)cc1F [Cmpd 13]	229 to 230 °C	76 to 100	76 to 100		
Nc1nc(=O)n(S(=O)(=O)c2ccc(C(F)(F)F)cc2)cc1F [Cmpd 14]	202 to 204 °C	76 to 100	76 to 100		
CS(=O)(=O)c1ccc(S(=O)(=O)n2cc(F)c(N)nc2=O)cc1 [Cmpd 15]	220 to 223 °C	51 to 75	76 to 100		
N#Cc1ccc(S(=O)(=O)n2cc(F)c(N)nc2=O)cc1 [Cmpd 16]	210 °C	51 to 75	76 to 100		
Nc1nc(=O)n(S(=O)(=O)c2ccc(Cl)c(Cl)c2)cc1F [Cmpd 17]	206 to 207 °C	76 to 100	76 to 100		
Nc1nc(=O)n(S(=O)(=O)c2c(Cl)cccc2Cl)cc1F [Cmpd 18]	209 to 212 °C	76 to 100	76 to 100		
Nc1nc(=O)n(S(=O)(=O)Cc2ccc(Br)cc2)cc1F [Cmpd 19]	156 to 159 °C	76 to 100	76 to 100		
Nc1nc(=O)n(S(=O)(=O)Cc2ccc(Cl)cc2)cc1F [Cmpd 20]	168 to 170 °C				
Cc1ccc(CS(=O)(=O)n2cc(F)c(N)nc2=O)cc1 [Cmpd 21]	164 to 166 °C				
Cc1cc(S(=O)(=O)n2cc(F)c(N)nc2=O)ccc1Oc1ncc(C(F)(F)F)cc1Cl [Cmpd 22]		76 to 100	76 to 100		

Compound	melting point	pest or weed control at 100 ppm [1, 2] [%]	pest or weed control at 100 ppm [1, 3] [%]	pest or weed control at 100 ppm [1, 4] [%]	pest or weed control at 100 ppm [1, 5] [%]
Cc1cc(Oc2ncc(C(F)(F)F)cc2Cl)ccc1S(=O)(=O)n1cc(F)c(N)nc1=O [Cmpd 23]	132 °C (dec.)	76 to 100	76 to 100		
Nc1nc(=O)n(S(=O)(=O)c2ccccc2)cc1F [Cmpd 24]	195 to 196 °C	76 to 100	76 to 100		
Cc1ccc(S(=O)(=O)n2cc(F)c(N)nc2=O)cc1 [Cmpd 25]	208 to 210 °C	76 to 100	76 to 100		
COc1ccc(S(=O)(=O)n2cc(F)c(N)nc2=O)cc1 [Cmpd 26]	182.5 °C	76 to 100	76 to 100		
CS(=O)(=O)n1cc(F)c(N)nc1=O [Cmpd 27]	181 to 184 °C	76 to 100	76 to 100		
CN(C)/C=N/c1nc(=O)n(S(=O)(=O)c2cn(C)cn2)cc1F [Cmpd 28, N′-[5-fluoro-1-(1-methyl-1H-imidazole-4-sulfonyl)-2-oxo-1,2-dihydro-pyrimidin-4-yl]-N,N-dimethylformamidine]		26 to 50	51 to 75		
CN(C)/C=N/c1nc(=O)n(S(=O)(=O)c2c(Cl)cccc2Cl)cc1F [Cmpd 29]	207 to 211 °C	76 to 100	76 to 100		
CN(C)/C=N/c1nc(=O)n(S(=O)(=O)Cc2ccccc2)cc1F [Cmpd 30]	152 to 154 °C				
CN(C)/C=N/c1nc(=O)n(S(=O)(=O)Cc2ccc(Cl)cc2)cc1F [Cmpd 31]	140 to 143 °C				
Cc1ccc(CS(=O)(=O)n2cc(F)c(/N=C/N(C)C)nc2=O)cc1 [Cmpd 32]	150 to 152 °C				
O=C(Nc1nc(=O)n(S(=O)(=O)c2ccccc2)cc1F)c1ccccc1 [Cmpd 33, N-(1-benzenesulfonyl-5-fluoro-2-oxo-1,2-dihydro-pyrimidin-4-yl)-benzamide]				76 to 100	26 to 50
CC(=O)Nc1nc(=O)n(S(=O)(=O)c2ccc(Cl)cc2)cc1F [Cmpd 34]	159 to 162 °C	76 to 100	76 to 100		
CCC(=O)Nc1nc(=O)n(S(=O)(=O)c2ccc(Cl)cc2)cc1F [Cmpd 35]	148 to 154 °C (dec.)	76 to 100	76 to 100		
CC(C)(C)C(=O)Nc1nc(=O)n(S(=O)(=O)c2ccc(Cl)cc2)cc1F [Cmpd 36]	129 to 132 °C	76 to 100	76 to 100		
O=C(Nc1nc(=O)n(S(=O)(=O)c2ccc(Cl)cc2)cc1F)c1ccccc1 [Cmpd 37]	156 to 159 °C	76 to 100	26 to 50		
O=C(Nc1nc(=O)n(S(=O)(=O)c2ccc(Cl)cc2)cc1F)c1ccc(Cl)cc1 [Cmpd 38, 4-chloro-N-[1-(4-chlorobenzenesulfonyl)-5-fluoro-2-oxo-1,2-dihydropyrimidin-4-yl]benzamideamide]		76 to 100	0 to 25		
Cc1ccc(C(=O)Nc2nc(=O)n(S(=O)(=O)c3ccc(Cl)cc3)cc2F)cc1 [Cmpd 39]	156 to 158 °C	0 to 25	76 to 100		
O=C(Nc1ccccc1)Nc1nc(=O)n(S(=O)(=O)c2ccccc2)cc1F [Cmpd 40, 1-(1-benzenesulfonyl-5-fluoro-2-oxo-1,2-dihydropyrimidin-4-yl)-3-phenylurea]	210 to 214 °C			0 to 25	26 to 50
O=C(Nc1ccccc1)Nc1nc(=O)n(S(=O)(=O)c2ccc(Cl)cc2)cc1F [Cmpd 41]	211 to 214 °C				
O=C(Nc1ccccc1)Nc1nc(=O)n(S(=O)(=O)c2c(Cl)cccc2Cl)cc1F [Cmpd 42]	205 to 210 °C	0 to 25	26 to 50		
COc1ccc(S(=O)(=O)n2cc(F)c(NC(=O)Nc3ccccc3)nc2=O)cc1 [Cmpd 43]	185 to 191 °C	0 to 25	26 to 50		
O=c1nc(NC(=S)Nc2ccccc2)c(F)cn1S(=O)(=O)c1ccccc1 [Cmpd 44, (1-benzenesulfonyl-5-fluoro-2-oxo-1,2-dihydropyrimidin-4-yl)-3-phenylthiourea]	205 to 208 °C			0 to 25	26 to 50
COc1ccc(S(=O)(=O)n2cc(F)c(NC(=S)Nc3ccccc3)nc2=O)cc1 [Cmpd 45]	190 to 195 °C	26 to 50	51 to 75		
